From patent publication US20220396819A1, “METHOD FOR PRODUCING PEPTIDE HAVING PHYSIOLOGICAL ACTIVITY, AND PEPTIDE COMPRISING SHORT LINKER” (priority 2019, published 2022)
Positions of bridges follow the written chain, without caps; N, C: chain ends. No end group written: not given here.

Tests used:
Type in all cases: cell-based
[1] = test system: HuCCT1 cells; test: Cell proliferation promoting activity in HuCCT1 cell culture; conditions: HGF 35 ng/mL or peptide 40 ng/mL, 5 days, N=3, FIG. 12
Procedure: HGF has been reported to promote cell proliferation by activating Met (K. Ito, et al. Nat. Commun. 6, 6373, 2015). Therefore, HuCCT1 cell culture was used to evaluate whether the HGF-PAS dimer peptide had the same activity of promoting cell proliferation as HGF.
RPMI 1640 medium (Nacalai Tesque) containing 5% FBS was added to a 24-well cell culture plate, and HuCCT1 cells were seeded at 5,000 cell/well. HGF at 35 ng/mL or AET-PAS-aMD4dY-PEG11 at 40 ng/mL was added, and the cells were cultured at 37° C. and 5% CO2 for 5 days. The cells were detached with 0.25% Trypsin/EDTA (Thermo Fisher Scientific) and the number of cells was quantified with Countess Automated Cell Counter (Thermo Fisher Scientific) (N=3).

[2] = test system: HuCCT1 cells; test: Wound healing effect, scratch in HuCCT1 cell culture; conditions: 33 ng/mL HGF or 100 ng/mL peptide, N=4, FIG. 16
Procedure: HGF has been reported to promote cell wound healing ability by activating Met (K. Ito, et al. Nat. Commun. 6, 6373, 2015). Therefore, HuCCT1 cell culture was used to evaluate whether the HGF-PAS dimer peptide would promote wound healing as HGF.
To 96-well cell culture plates, 50,000 HuCCT1 cells suspended in RPMI 1640 medium with 10% FBS were added per well and incubated overnight under the conditions of 37° C. and 5% CO2. Cells in the center of the culture wells were scraped using a 1000 μL Thermo Scientific ART chip (Thermo Fisher Scientific) and washed with low serum medium (RPMI 1640 medium with 0.5% FBS). Low serum medium containing 33 ng/mL HGF or 100 ng/mL AET-PAS-aMD4dY-PEG11 was added, and the cells were cultured under the conditions of 37° C. and 5% CO2. BioStudio-T (Nikon Corporation) was used for cell observation, and cells were automatically photographed every hour. The rate of wound healing (μm/h) was calculated as ((wound width 1 hour after wound creation)−(wound width 7 hours after wound creation))/6 (N=4).

[3] = test system: HuCCT1 cells; test: Tubular structure formation of HuCCT1 cells in collagen gel; conditions: 40 ng/mL, day 7
From the text: It is known that HGF is allowed to act on HUVEC cells and HuCCT1 cells contained in collagen gel to form a tubular structure (K. Ito, et al. Nat. Commun. 6, 6373, 2015). It has also been reported that a Met full agonist having a function similar to that of HGF can form a tubular structure in the above cells, whereas a partial agonist having only a partial function cannot promote the formation of a tubular structure (W. Miao, et al. Int. J. Mol. Sci. 19, 3141, 2018). Therefore, it was decided to confirm whether the HGF-PAS dimer peptide was a full agonist or a partial agonist by using a tubular structure formation experiment using HuCCT1 cells.
To 8 equivalents of CellMatrix type IA (Nitta Gelatin), 1 equivalent of 10-fold concentrated D-MEM/F12 (Thermo Fisher Scientific) and 1 equivalent of reconstitution buffer (22 g/L sodium bicarbonate, 47.7 g/L HEPES, 0.05N sodium hydroxide aqueous solution) were mixed in order on ice. HuCCT1 cells were added at 25,000 cells per mL of the mixture and mixed on ice. To a 48-well cell culture plate, 400 μL of the above mixture was added, and the mixture was allowed to stand for 4 hours under the conditions of 37° C. and 5% CO2 for gelation. Onto the formed intracellular encapsulated collagen gel, 500 μL of RPMI 1640 medium containing 10% FBS was added. The cell-stimulating group was cultured by adding 35 ng/mL HGF or 40 ng/mL AET-PAS-aMD4dY-PEG11. […]

Substance | proliferation ability relative to the non-added group (Mock) [1] | improvement of the rate of wound healing [2] | agonist type (full or partial) for Met [3]
AETCRQFNRRTHEVWNLDCGAAPAAPAPAAPAAPAPAAPAAPGCRQFNRRTHEVWNLDC (disulfide 4-19, 44-59; also: PEG11) [AET-PAS-aMD4dY-PEG11] | about 2.5 times | about 1.6 times | full agonist for Met
HGF: recombinant human HGF (rhHGF, R&D Systems) | about 2.5 times | about 1.6 times | 
